This experiment relates to HMVEC. The experiment is described as follows: human microvascular endothelial (HMVEC) migration assay. It is filed as cell-based. The note with it: Inhibition of HMVEC migration, activators 15 ng/mL bFGF/VEGF, 4 hours at 37 °C, compared to a positive control. The method, boiled down:
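Dermal (single-donor) and neonatal microvascular endothelial cells, serum-starved overnight in DME/0.01% BSA, attached 2 h at 37 °C to gelatin-coated 5 µm membranes in a modified Boyden chamber. Test substances with 15 ng/mL bFGF/VEGF added; migration over 4 h at 37 °C. Stained migrated cells counted per high-power field, background subtracted, or given as % inhibition versus positive control.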

For the substance “N-{(3R)-1-[(2-chloro-6-methylpyridin-3-yl)carbonyl]pyrrolidin-3-yl}-1,3,3-trimethyl-6-azabicyclo[3.2.1]octane-6-carboxamide [Example 36]”, the “% Inhibition @ 1 nM” value (1 nM) was 64%.
With “N-{(3R)-1-[(6-methyl-3-pyridinyl)carbonyl]-3-pyrrolidinyl}-N'-[2-(2-thienyl)ethyl]urea [Example 28]”, the “% Inhibition @ 0.1 nM” value (0.1 nM) is listed as 86%.

The values are drawn from patent EP1680415B1, “PYRROLIDINYL UREA DERIVATIVES AS ANGIOGENESIS INHIBITORS” (ABBOTT LABORATORIES, priority 2003, dated 2005).
